Experimental data reported in publication PMC11062894, “Protein-based bandpass filters for controlling cellular signaling with chemical inputs” (Nature Chemical Biology, 2023).

System: GEMS receptors with CBPvene (Bcl2–LD3 and Bcl2high variants), STAT3-driven SEAP in HEK293T cells
Assay: GEMS SEAP reporter assay, CBPvene (Bcl2high, LD3-v and Bcl2-v variants) with venetoclax
Format: cell-based
[1] = Supp Fig 10a, Bcl2-v6, venetoclax 1000 nM
[2] = Supp Fig 10a, Bcl2-v6, venetoclax 3160 nM
[3] = Supp Fig 10a, Bcl2-v6, venetoclax 10000 nM
[4] = Supp Fig 10a, Bcl2, venetoclax 316 nM
[5] = Supp Fig 10a, Bcl2, venetoclax 1000 nM
[6] = Supp Fig 10a, Bcl2, venetoclax 3160 nM
[7] = Supp Fig 10a, Bcl2, venetoclax 10000 nM
[8] = Supp Fig 10b, Bcl2-v1, venetoclax 1 nM
[9] = Supp Fig 10b, Bcl2-v1, venetoclax 3.16 nM
[10] = Supp Fig 10b, Bcl2-v1, venetoclax 10 nM
[11] = Supp Fig 10b, Bcl2-v1, venetoclax 31.6 nM
[12] = Supp Fig 10b, Bcl2-v1, venetoclax 100 nM
[13] = Supp Fig 10b, Bcl2-v1, venetoclax 316 nM
[14] = Supp Fig 10b, Bcl2-v1, venetoclax 1000 nM
[15] = Supp Fig 10b, Bcl2-v1, venetoclax 3160 nM
[16] = Supp Fig 10b, Bcl2-v1, venetoclax 10000 nM
[17] = Supp Fig 10b, Bcl2-v2, venetoclax 1 nM
[18] = Supp Fig 10b, Bcl2-v2, venetoclax 3.16 nM
[19] = Supp Fig 10b, Bcl2-v2, venetoclax 10 nM
[20] = Supp Fig 10b, Bcl2-v2, venetoclax 31.6 nM
[21] = Supp Fig 10b, Bcl2-v2, venetoclax 100 nM
[22] = Supp Fig 10b, Bcl2-v2, venetoclax 316 nM
[23] = Supp Fig 10b, Bcl2-v2, venetoclax 1000 nM
[24] = Supp Fig 10b, Bcl2-v3, venetoclax 1 nM
[25] = Supp Fig 10b, Bcl2-v3, venetoclax 3.16 nM
[26] = Supp Fig 10b, Bcl2-v3, venetoclax 10 nM
[27] = Supp Fig 10b, Bcl2-v3, venetoclax 31.6 nM
[28] = Supp Fig 10b, Bcl2-v3, venetoclax 100 nM
[29] = Supp Fig 10b, Bcl2-v3, venetoclax 316 nM
[30] = Supp Fig 10b, Bcl2-v3, venetoclax 1000 nM
[31] = Supp Fig 10b, Bcl2-v3, venetoclax 3160 nM
[32] = Supp Fig 10b, Bcl2-v3, venetoclax 10000 nM
[33] = Supp Fig 10b, Bcl2-v4, venetoclax 1 nM
[34] = Supp Fig 10b, Bcl2-v4, venetoclax 3.16 nM
[35] = Supp Fig 10b, Bcl2-v4, venetoclax 10 nM
[36] = Supp Fig 10b, Bcl2-v4, venetoclax 31.6 nM

`CC1(C)CCC(CN2CCN(c3ccc(C(=O)NS(=O)(=O)c4ccc(NCC5CCOCC5)c([N+](=O)[O-])c4)c(Oc4cnc5[nH]ccc5c4)c3)CC2)=C(c2ccc(Cl)cc2)C1` [Venetoclax] was tested, and the SEAP [1] was 19.2478, the “SEAP normalized (max=100)” value [1] was 45.9867 and the SEAP [2] was 13.59. The “SEAP normalized (max=100)” value [2] was 32.4691, the SEAP [3] was 7.797 and the “SEAP normalized (max=100)” value [3] was 18.6277. The SEAP [4] was 206.027, the “SEAP normalized (max=100)” value [4] was 100 and the SEAP [5] was 118.152. For the same compound, the “SEAP normalized (max=100)” value [5] was 57.3479, the SEAP [6] was 9.9385 and the “SEAP normalized (max=100)” value [6] was 4.824. The SEAP [7] was 6.696, the “SEAP normalized (max=100)” value [7] was 3.25 and the SEAP [8] was 44.2279. The “SEAP normalized (max=100)” value [8] was 81.6306, the SEAP [9] was 50.6217 and the “SEAP normalized (max=100)” value [9] was 93.4314. The SEAP [10] was 46.5279, the “SEAP normalized (max=100)” value [10] was 85.8756 and the SEAP [11] was 52.0969. For the same compound, the “SEAP normalized (max=100)” value [11] was 96.1542, the SEAP [12] was 54.1806 and the “SEAP normalized (max=100)” value [12] was 100. The SEAP [13] was 42.1946, the “SEAP normalized (max=100)” value [13] was 77.8778 and the SEAP [14] was 16.2179. The “SEAP normalized (max=100)” value [14] was 29.933, the SEAP [15] was 5.677 and the “SEAP normalized (max=100)” value [15] was 10.4785. For the same compound, the SEAP [16] was 3.434, the “SEAP normalized (max=100)” value [16] was 6.3381 and the SEAP [17] was 36.2682. The “SEAP normalized (max=100)” value [17] was 14.0118, the SEAP [18] was 38.2081 and the “SEAP normalized (max=100)” value [18] was 14.7612. The SEAP [19] was 49.7513, the “SEAP normalized (max=100)” value [19] was 19.2208 and the SEAP [20] was 115.969. The “SEAP normalized (max=100)” value [20] was 44.8031, the SEAP [21] was 258.841 and the “SEAP normalized (max=100)” value [21] was 100. For the same compound, the SEAP [22] was 180.703, the “SEAP normalized (max=100)” value [22] was 69.8126 and the SEAP [23] was 50.1494. The “SEAP normalized (max=100)” value [23] was 19.3746, the SEAP [24] was 40.7727 and the “SEAP normalized (max=100)” value [24] was 77.7639. The SEAP [25] was 41.3533, the “SEAP normalized (max=100)” value [25] was 78.8713 and the SEAP [26] was 40.3779. For the same compound, the “SEAP normalized (max=100)” value [26] was 77.0109, the SEAP [27] was 52.4314 and the “SEAP normalized (max=100)” value [27] was 100. The SEAP [28] was 43.8328, the “SEAP normalized (max=100)” value [28] was 83.6002 and the SEAP [29] was 28.8093. The “SEAP normalized (max=100)” value [29] was 54.9466, the SEAP [30] was 14.8804 and the “SEAP normalized (max=100)” value [30] was 28.3807. For the same compound, the SEAP [31] was 13.0836, the “SEAP normalized (max=100)” value [31] was 24.9537 and the SEAP [32] was 6.8. The “SEAP normalized (max=100)” value [32] was 12.9702, the SEAP [33] was 29.6608 and the “SEAP normalized (max=100)” value [33] was 89.6354. The SEAP [34] was 26.3749, the “SEAP normalized (max=100)” value [34] was 79.7051 and the SEAP [35] was 26.5882. The “SEAP normalized (max=100)” value [35] was 80.3497, the SEAP [36] was 28.0379 and the “SEAP normalized (max=100)” value [36] was 84.7308. For the same compound, the SEAP (Supp Fig 10b, Bcl2-v4, venetoclax 100 nM) was 26.0079.
